Patent US20120035079A1, “GENOTOXICITY TESTING” (priority 2009, published 2012)
Read-outs that look alike come from different tables or passages of the source.

Columns and labels:
[1] = test system: human GADD45α gene promoter and regulatory element linked to Gaussia luciferase (GD532-GLuc) in TK6 cells; assay: GLuc genotoxicity assay: GLuc-T01 cells (TK6 with pEP-GD532-GLuc), 48 hour endpoint, without S9
Protocol: The assay has the following steps, as further described below: (1) preparing a microplate for use in an assay; (2) conducting the assay in the microplates; (3) collecting and analysing the data; and (4) making a judgment on genome damage and the consequences.
The assay is performed using a microplate reader capable of luminescence and absorbance readings, equipped with injectors capable of single well additions.
Using the standard dilution protocol described here, all concentrations are halved in the microplate well when a sample volume of 75 μl is combined with 75 μl of cell culture. All standard and test chemicals and reagents should be prepared fresh shortly before the assay is performed.
An initial concentration of 2 mM or 1 mg/ml (whichever is lowest) is recommended (equating to 1 mM or 500 μg/ml of test compound on the microplate). It is desirable that the test compound is fully soluble at the top concentration tested. A minimum of 250 μl of each test compound is required per plate. […] If the compound precipitates from solution when the DMSO standard is added to water, the original DMSO stock standard can be diluted further with 100% DMSO. The 20 μl+980 μl water dilution step is then repeated to produce a fresh test standard.
Standard cell culture methods are used to prepare GLuc-TO1 cells for use in the assay. […] Cells are grown in routine culture medium:
The following standard protocol may be followed. […] To achieve this, 150 microlitres of the test chemical solution are put into a microplate well. […] This produces 9 serial dilutions of 75 microlitres each.
75 μl of GLuc-T01 cells in Assay Medium (GS-HC-AM) as described above are then added to each well as appropriate.
The following controls are included in the microplate: • a. Blank well. • b. Test compound/sample alone. • c. Assay medium alone. • d. Control compound with cells.
Once finished, the microplates are covered with a breathable membrane. […] Plates should be incubated and analysed after 48 hours +/−2 hours.
Plates are first read for absorbance in each well, at a wavelength of ˜620 nm. […] An example of a suitable reader and injector system is a Tecan Infinite F500
Following the 48 hour incubation, luminescence and absorbance data are collected from the microplates. A microplate reader combining luminescence and absorbance functionality is used; by way of example, this reader may be a Tecan Infinite F500 (Tecan UK Ltd.). Luminescence data are collected with an integration time of 3 seconds after injection of the substrate and shaking of the microplate (within the reader). Optical absorbance is measured through a 600 nm or 620 nm filter. These luminescence and absorbance data are transported into a Microsoft Excel spreadsheet, and converted to graphical data. […] Luminescence data are divided by absorbance data to give ‘brightness units’, the measure of average GLuc induction per cell. […] In this way, one can distinguish between a small number of highly luminescent cells and a large number of weakly luminescent cells. The decision (see below), on whether or not a compound is classified as being genotoxic is generated automatically within the software.
The cytotoxicity threshold is set at 80% of the cell density reached by the untreated control cells.
Anomalous brightness data is generated when the toxicity leads to a final cell density less than 30% that of the blank. Genotoxicity data is not calculated above this toxicity threshold.
A series of genotoxicity assays were performed using a TK6 cell line having the GD532-GLuc expression cassette (a “GLuc assay”). The assays were performed using the experimental protocol provided in a later example.

[2] = test system: GADD45α-FLuc expression cassette (GD532-L) in TK6 cells; assay: FLuc genotoxicity assay: TK6 cells with GADD45α-FLuc (GD532-L) expression cassette; details: for detection as genotoxic with FLuc at the 48 hour endpoint: FLuc measured 8-48 hours after treatment, FIG. 4
Description: The reagents for the FLuc assay were originally taken from the article Wettey F R, Jackson A P. Luciferase Reporter Assay. In: Reviews and Protocols in DT40 Research. […] The reagents and their concentrations are listed below. The pH of both mixes is adjusted to pH 7.8 in order to maximise the light output from luciferase.
It was decided to directly lyse the TK6 cells in the GreenScreen HC assay medium as to pellet and wash the cells would add additional steps to the protocol and therefore increase variability into the data. […] The solution of this combined lysis and assay mix (L&A buffer) is shown below.
The final concentration listed above is the concentration of the reagents after the L&A buffer has been combined with the GreenScreen HC assay media. The final concentration of the reagents is fixed and based on the information from the Wettey and Jackson protocol. The FLuc assay as it is currently performed relies on the addition of 40 μl of L&A buffer to 120 μl of GreenScreen HC assay buffer. Therefore, the initial concentration of the reagents in the L&A buffer has to be four times greater than the desired final concentration. The L&A buffer should be pH 8.0 as when the L&A buffer is combined with the GreenScreen HC assay medium (pH 7.2) this give a final pH of ˜7.8.
The preparation of pEP-GD532-GLuc is described in the accompanying examples. Using a similar strategy the inventors also prepared plasmid pEP-GD532-L, in which FLuc is used as the reporter protein. TK6 cells are transfected with a plasmid having a GD532-L or GD532-GLuc expression cassette by electroporation and clones bearing the reporter plasmids are selected.
The inventors wished to determine which of the GLuc and FLuc reporter proteins were most suitable for use in a genotoxicity assay. To determine this, they performed a series of experiments in which cells having the GD532-L or GD532-GLuc expression cassette were exposed to a test compound, and the activity of GLuc and FLuc measured and compared to the standard GADD45α-GFP expression cassette.
FLuc cells were combined with a several known genotoxins and non-genotoxins. FLuc expression was measured at 8, 16, 24, 32, 40 and 48 hours after treatment.

[3] = test system: GADD45α-GFP expression cassette in TK6 cells; assay: GADD45α-GFP reporter assay (GreenScreen HC); format: cell-based, human; details: FIG. 3, 24 hour timeframe
Protocol: Studying FIG. 3 allows for the construction of a number of hypotheses regarding the stability of the reporter proteins and how this will affect the GreenScreen HC assay. The FLuc protein has been reported to have a half-life within cells of ˜3 hours. In comparison, GFP has been reported to have a half-life within cells of ˜26 hours. In this respect GFP can be considered to give more of a cumulative measure of GADD45α induction whilst FLuc will report only on recent GADD45 induction.

[4] = test system: GD532-GLuc reporter in GLuc-T01 cells with S9 liver extract; assay: S9 metabolic activation GLuc assay with thiazole orange cell number estimation; details: TO cell number estimation, threshold 1.5, FIG. 7B
Protocol: In an S9-incorporating assay, GLuc-T01 cells are exposed to the test compound in the presence of the S9 extract in a mixture with enzyme co-factors (for example, glucose-6-phosphate (2.5 mM) and β-nicotinamide adenine dinucleotide phosphate (0.5 mM)). The S9 extract is normally used at a final concentration of 1% (v/v) in the assay microplate. […] The conditions of an S9-incorporating assay (for example, time of exposure and type of S9—animal species, chemical induction of hepatic enzymes etc.) may be varied according to experimental requirements.
The cell stain used in the adapted protocol is thiazole orange (TO) which is a cyanine dye that binds to nucleic acids. The binding of TO to DNA and RNA greatly enhances its fluorescence intensity, allowing for its detection without the need to wash away background, unbound TO.
The method requires GLuc-T01 cells to be lysed to allow access to the DNA of all cells present in the microplate well.
In the microplate, the final concentration of TO is 15 μM and for Triton-X100 it is 1% (v/v).
Where the assay includes S9 liver extracts, the genotoxic threshold is set at a relative GLuc induction of 1.5 (i.e. an 50% increase).

[5] = lowest test compound concentration that produces a relative GLuc induction greater than the 1.8 threshold
[6] = TK6 with GD532-GLuc, 48 hour endpoint

| Compound | GLuc Genotox Result [1] | GLuc Genotox LEC ([1]; human, 48 h) [µg/mL] | further results |
| --- | --- | --- | --- |
| OO [Hydrogen Peroxide] | +++ | 5.00 |  |
| CCCCNC(=O)n1c(NC(=O)OC)nc2ccccc21 [Benomyl] | +++ | 1.81 |  |
| CN(N=O)C(N)=O [N-Nitroso-N-methylurea] |  |  | GLuc Genotox LEC [1, 5]: 8.05 µg/mL; test concentration at which the highest relative induction is seen ([2]; FLuc reporter, FIG. 3, 24 hour timeframe): 32 µg/mL; concentrations that cause significant cell death ([2]; TK6 reporter cells, FIG. 3, explains decrease in FLuc signal): greater than 32 μg/ml; concentration at which GADD45α induction (GFP signal) peaks [3]: at least 258 μg/ml |
| COc1cc([C@@H]2c3cc4c(cc3[C@@H](O[C@@H]3O[C@@H]5CO[C@@H](C)O[C@H]5[C@H](O)[C@H]3O)[C@H]3COC(=O)[C@H]23)OCO4)cc(OC)c1O [Etoposide] | +++ |  | genotoxicity outcome in the GLuc assay (in words) [1]: positive |
| CCc1nc(N)nc(N)c1-c1ccc(Cl)cc1 [Pyrimethamine] | +++ | 0.39 |  |
| NC(=O)NO [Hydroxyurea] |  | 4.75 |  |
| C[C@@]1(CO)[C@H](O)CC[C@@]2(C)[C@H]1CC[C@H]1C[C@@H]3C[C@@]12CC[C@]3(O)CO [Aphidicolin] |  |  | GLuc Genotox LEC [1, 5]: 0.13 µg/mL |
| CC(=O)O[C@H]1C(=O)[C@@]2(C)[C@H]([C@H](OC(=O)c3ccccc3)[C@]3(O)C[C@H](OC(=O)[C@H](O)[C@@H](NC(=O)c4ccccc4)c4ccccc4)C(C)=C1C3(C)C)[C@]1(OC(C)=O)CO[C@@H]1C[C@@H]2O [Paclitaxel (Taxol), Paclitaxel] | +++ | 0.03 |  |
| Nc1ncn([C@@H]2O[C@H](CO)[C@@H](O)[C@H]2O)c(=O)n1 [5-Azacytidine] | +++ | 0.38 |  |
| CC[C@]1(O)C[C@H]2CN(CCc3c([nH]c4ccccc34)[C@@](C(=O)OC)(c3cc4c(cc3OC)N(C=O)[C@H]3[C@@](O)(C(=O)OC)[C@H](OC(C)=O)[C@]5(CC)C=CCN6CC[C@]43[C@@H]65)C2)C1 [Vincristine Sulphate] | +++ | 0.0008 |  |
| O=c1[nH]cc(F)c(=O)[nH]1 [5-Fluorouracul] |  |  | genotoxicity outcome in the GLuc assay (in words) [1, 6]: correctly identified; GLuc Genotox LEC [1, 5]: 0.63 µg/mL; detection as genotoxic with FLuc at the 48 hour endpoint [2]: would not have been detected as genotoxic |
| CC[C@@]1(O)C(=O)OCc2c1cc1n(c2=O)Cc2cc3ccccc3nc2-1 [Camptothecin] |  |  | GLuc Genotox LEC [1, 5]: 0.08 µg/mL |
| Nc1cc2c3ccccc3ccc2c2ccccc12 [6-Aminochrysene] |  |  | detection of pro-genotoxin in S9 GLuc assay [4]: detected |
| COc1cc2c(c(OC)c1OC)-c1ccc(OC)c(=O)cc1[C@@H](NC(C)=O)CC2 [Colchicine] |  |  | genotoxicity outcome in the GLuc assay (in words) [1, 6]: correctly identified; detection as genotoxic with FLuc at the 48 hour endpoint [2]: would not have been detected as genotoxic |
| OCCO [ethylene glycol] |  |  | genotoxicity outcome in the GLuc assay (in words) [1, 6]: correctly identified |
| COS(C)(=O)=O [Methyl methanesulfonate] | +++ | 6.25 |  |
| COC1=CC(=O)C[C@@H](C)[C@]12Oc1c(Cl)c(OC)cc(OC)c1C2=O [Griseofulvin] | +++ |  |  |
